Measured values taken from ChEMBL document CHEMBL1123438, “Queuine analogues. Their synthesis and inhibition of growth of mouse L5178Y cells in vitro” (1986).

How the values were obtained:
[1] = target: T1, Queuine tRNA-ribosyltransferase catalytic subunit 1 (Rattus norvegicus) (UniProt Q4QR99); experiment: Ability to act as substrate of rat liver tRNA-Guanine Transglycosylase.
T1 sequence (whole entry): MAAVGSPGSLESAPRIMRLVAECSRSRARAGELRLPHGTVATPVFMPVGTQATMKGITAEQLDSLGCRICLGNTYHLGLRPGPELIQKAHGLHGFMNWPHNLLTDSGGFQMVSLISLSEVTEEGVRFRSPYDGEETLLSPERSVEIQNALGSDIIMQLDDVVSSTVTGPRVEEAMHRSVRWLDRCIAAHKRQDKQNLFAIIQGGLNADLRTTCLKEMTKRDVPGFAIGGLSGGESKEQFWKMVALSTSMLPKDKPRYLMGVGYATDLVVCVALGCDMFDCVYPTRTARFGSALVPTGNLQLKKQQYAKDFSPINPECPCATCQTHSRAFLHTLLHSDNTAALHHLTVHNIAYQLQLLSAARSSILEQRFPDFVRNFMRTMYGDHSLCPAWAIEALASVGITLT

L5178Y [2] = experiment: Inhibition of L5178Y cell growth at 10 ug/mL.
L5178Y [3] = experiment: Inhibition of L5178Y cell growth at 100 ug/mL.
L5178Y [4] = experiment: Compound was tested for inhibition of growth of L5178Y cells at concentration of 1 ug/mL; assay type: functional; conditions: Mus musculus

Incorporation [1]	SMILES	Inhibition (L5178Y [2])	Inhibition (L5178Y [3])	inhibition at 1 µg/mL (L5178Y [4])
88%	Nc1nc(O)c2c(CNCC(O)CO)c[nH]c2n1 (stereo unspecified)	<10%	31%	–
48%	N/C(=N/Cc1c[nH]c2nc(N)nc(O)c12)c1cc(I)c(O)c(I)c1	31%	89%	–
70%	Nc1nc(O)c2c(CNC3C=C[C@H](O)[C@@H]3O)c[nH]c2n1 (stereo partly specified)	<10%	53%	–
76%	Nc1nc(O)c2c(CNc3ccccc3O)c[nH]c2n1	53%	90%	25%
65%	Nc1nc(O)c2c(CN3CCCCC3)c[nH]c2n1	<10%	36%	–
55%	CC1(C)OC2C(NCc3c[nH]c4nc(N)nc(O)c34)C=C[C@@H]2O1 (stereo partly specified)	<10%	34%	–
123%	CC1(C)OC2C(NCc3c[nH]c4nc(N)nc(S)c34)C=C[C@@H]2O1 (stereo partly specified)	87%	94%	46%
50%	NCc1c[nH]c2nc(N)nc(S)c12	36%	77%	< 10%
98%	Nc1nc(O)c2c(CNCCOCCO)c[nH]c2n1	<10%	9%	–
100%	Nc1nc(O)c2c(CNC3C=C[C@@H](O)[C@H]3O)c[nH]c2n1 (stereo partly specified)	<10%	20%	–
48%	Nc1nc(O)c2c(n1)N=CC2CNCC(=O)O (stereo unspecified)	<10%	20%	–
80%	Nc1nc(O)c2c(CNC3CCCC3)c[nH]c2n1	17%	74%	–
100%	CC1(C)OC2C(NCc3c[nH]c4nc(N)nc(O)c34)C=C[C@H]2O1 (stereo partly specified)	<10%	21%	–
0%	Nc1nc(O)c2c(CNC(=O)CI)c[nH]c2n1	87%	89%	49%
98%	Nc1nc(O)c2c(CNCc3ccc(I)cc3)c[nH]c2n1	19%	77%	–
36%	CC(C)C(=O)NCc1c[nH]c2nc(N)nc(O)c12	16%	87%	–
33%	Nc1nc(O)c2c(CNc3cccc(O)c3)c[nH]c2n1	65%	79%	12%
78%	Nc1nc(S)c2c(CNC3C=C[C@H](O)C3O)c[nH]c2n1 (stereo partly specified)	54%	88%	12%
94%	CCCNCc1c[nH]c2nc(N)nc(O)c12	<10%	43%	–
120%	Nc1nc(O)c2c(CNC3C=C[C@@H](O)C3O)c[nH]c2n1 (stereo partly specified)	<10%	23%	–
